Columns and labels:
human GPR84 receptor = target: T1, human GPR84 receptor (Homo sapiens, UniProt Q9NQS5); experiment: Gαi biosensor BRET assay in transfected HEK293 cells (antagonism of GPR84 agonist ZQ-16); format: cell-based; details: 200 nmol/L ZQ-16; for inhibition at 2 µM / inhibition at 10 µM: HEK293, single concentration; for inhibition at 2 µM: code A = 2 μM; for inhibition at 10 µM: code F = 10 μM
T1 construct: host or cells: HEK293 cells, transient transfection
Excerpt: Background—The following assays can be used for determination of GPR84 activation in living HEK293 cells. The Gαi BRET biosensor (Gagnon et al., 2018; Gales et al., 2006. Nat Struct Mol Biol. 13, 778-86; Saulieres et al., 2012. Nat Chem Biol. 8, 622-30) allows to directly monitor GPR84-mediated activation of Gαi. The Gαi biosensor consists of a Rluc8-tagged Gαi2 subunit, a GFP10-tagged Gγ2 subunit, and an untagged Gβ1. Agonist stimulation and GPR84 activation triggers a physical separation between the RLuc8-Gαi donor and the GFP10-Gγ2 acceptor, resulting in a decrease in BRET signal whose amplitude is correlated to ligand efficacy (Gales et al., 2006). Moreover, signaling functions of GPCRs are tightly regulated by endocytosis, the targeting of receptors to endosomes and their sorting to lysosomes or recycling to the plasma membrane. The early endosomes (EEs) trafficking assay (Namkung et al., 2016. Nat Commun. 7, 12178) uses Rluc8-tagged GPR84 and Renilla GFP (rGFP) attached to the FYVE domain from human endofin/zinc finger FYVE domain-containing protein 16, which binds phosphatidylinositol 3-phosphate in EEs. Agonist stimulation of GPR84-Rluc8 leads to trafficking of the receptor to EEs, and ensuing increase of the donor concentration relative to the rGFP-FYVE acceptor anchored in the same cellular compartment, and thus results in an increase in BRET signal.
Plasmids—The cDNA clones for human GPR84 receptor, human Gαi2, Gβ1, and Gγ2 were obtained from the cDNA Resource Center (www.cdna.org). GFP10 (F64L, S147P, S202F and H231L variant of Aequorea victoria Green Fluorescent Protein) gBlocks gene fragments (Integrated DNA Technologies, IA) and linker were inserted in frame at the N-terminus of human Gγ2. Rluc8 (A55T, C124A, S130A, K136R, A143M, M185V, M253L, and S287L variant of the Renilla reniformis luciferase) gBlocks gene fragment was inserted with linkers in frame in between residues 91 and 92 of Gα2 or at the C-terminus of GPR84. The FYVE domain from human endofin (residues Q739 to K806) attached in frame at the C terminus of a humanized Renilla GFP (rGFP), were synthesized as gBlocks gene fragments.
Bioluminescence Resonance Energy Transfer (BRET) Measurement—HEK293 cells were transfected with GPR84-Rluc8 and rGFP-FYVE for the EEs trafficking biosensor or with GPR84, Gαi2-Rluc8, GFP10-Gγ2, and Gβ1 for the Gαi biosensor. The following day, transiently transfected cells were seeded in 96-well white clear bottom microplates coated with poly-D-lysine and left in culture for 24 hours. Cells were washed once with Tyrode's buffer (140 mmol/L NaCl, 1 mmol/L CaCl2, 2.7 mmol/L KCl, 0.49 mmol/L MgCl2, 0.37 mmol/L NaH2PO4, 5.6 mmol/L glucose, 12 mmol/L NaHCO3, and 25 mmol/L HEPES, pH 7.5) before performing assays in Tyrode's buffer. Test compounds were incubated with cells for 5 (Gui) or 15 (EEs) minutes at 37° C. before addition of 200 nmol/L of the GPR84 agonist ZQ-16 (2-(Hexylthio)-6-hydroxy-4(3H)-pyrimidinone) for 5 minutes at room temperature (Gui) or 30 minutes at 37° C. (EEs). The Rluc8 substrate coelenterazine 400A (Prolume, Lakeside, AZ) was added at a final concentration of 5 μmol/L and BRET readings were collected using an Infinite M1000 microplate reader (Tecan, Morrisville, NC). BRET^2 readings between Rluc8 and GFP10 or rGFP were collected by sequential integration of the signals detected in the 370 to 450 nm (Rluc8) and 510 to 540 nm (GFP10, rGFP) windows. The BRET signal was calculated as the ratio of light emitted by acceptor (GFP10, rGFP) over the light emitted by donor (Rluc8). The values were corrected to net BRET by subtracting the background BRET signal obtained in cells transfected with Rluc8 constructs alone. Ligand-promoted net BRET values were calculated by subtracting vehicle-induced net BRET from ligand-induced net BRET.

[1] = tested on: dextran sodium sulfate-induced chronic inflammatory bowel disease model; details: once-daily doses of 3 and 10 mg/kg; mouse; cited from earlier work

T1 sequence (Q9NQS5 whole entry): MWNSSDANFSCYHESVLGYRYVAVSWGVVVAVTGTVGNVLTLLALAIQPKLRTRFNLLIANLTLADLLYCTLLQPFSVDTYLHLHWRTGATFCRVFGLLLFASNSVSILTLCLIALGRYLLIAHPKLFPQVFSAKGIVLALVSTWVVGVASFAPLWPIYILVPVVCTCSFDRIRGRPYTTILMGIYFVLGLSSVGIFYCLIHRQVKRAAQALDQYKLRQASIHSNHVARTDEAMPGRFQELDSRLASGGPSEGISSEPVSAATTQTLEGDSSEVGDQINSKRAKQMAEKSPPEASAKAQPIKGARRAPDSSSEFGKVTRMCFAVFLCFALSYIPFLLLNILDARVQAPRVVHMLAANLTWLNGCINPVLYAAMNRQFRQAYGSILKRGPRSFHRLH

IC50 (human GPR84 receptor) | SMILES | inhibition at 2 µM (human GPR84 receptor) | inhibition at 10 µM (human GPR84 receptor) | other results
≤ 300 nM | Cc1ccc(C#CC2CC2)cc1N(C(=O)c1cn(CC2OCC3(CC3)CO2)nn1)C(C)C [Compound I-86] | > 75% | – | –
– | Cc1ccc(C#CC2CC2)cc1/N=C(\OC(C)C)c1cn(CC2OCC3(CC3)CO2)nn1 [Compound I-87] | – | > 75% | –
≤ 300 nM | CN(C(=O)c1cn(CC2OCC3(CC3)CO2)nn1)c1ccc(C#CC2CC2)cc1Cl [Compound I-94] | > 75% | – | –
– | Cc1cc(C#CC2CC2)ccc1N(C)C1(c2cn(CC3OCC4(CC4)CO3)nn2)COC1 [Compound I-95] | – | > 75% | –
– | O=C(Nc1cc(C#CC2CC2)ccc1Cl)c1cn(CC2OCC3(CC3)CO2)nn1 [Compound I-96] | – | ≤ 25% | –
– | O=C(Nc1cccc(C#CC2CC2)c1)c1cn(CC2OCC3(CC3)CO2)nn1 [Compound I-97] | – | ≤ 25% | –
– | COc1cc(C#CC2CC2)cc(NC(=O)c2cn(CC3OCC4(CC4)CO3)nn2)c1 [Compound I-98] | – | ≤ 25% | –
– | COc1cc(C#CC2CC2)cc(N(C)C(=O)c2cn(CC3OCC4(CC4)CO3)nn2)c1 [Compound I-99] | – | 25 to 50% | –
≤ 300 nM | Cc1cc(F)c(C#CC2CC2)cc1N(C)C(=O)c1cn(CC2OCC3(CC3)CO2)nn1 [Compound I-100] | > 75% | – | –
– | Cc1cc(F)c(C#CC2CC2)cc1NC(=O)c1cn(CC2OCC3(CC3)CO2)nn1 [Compound I-101] | – | ≤ 25% | –
– | CN(C)c1ccc(C#CC2CC2)cc1NC(=O)c1cn(CC2OCC3(CC3)CO2)nn1 [Compound I-102] | – | ≤ 25% | –
– | CCc1ccc(C#CC2CC2)cc1NC(=O)c1cn(CC2OCC3(CC3)CO2)nn1 [Compound I-103] | – | ≤ 25% | –
300 to 1000 nM | CCc1ccc(C#CC2CC2)cc1N(C)C(=O)c1cn(CC2OCC3(CC3)CO2)nn1 [Compound I-104] | – | > 75% | –
300 to 1000 nM | Cc1cc(C#CC2CC2)ccc1N(C)C(=O)c1cnn(CC2OCC3(CC3)CO2)c1 [Compound I-105] | – | > 75% | –
– | O=c1nc(OC[C@@H]2COCCO2)cc2n1CCc1cc(C#CC3CC3)ccc1-2 [GLPG1205] | – | – | disease activity index score [1]: reduced; neutrophil infiltration [1]: reduced

SMILES | IC50 (human GPR84 receptor) | inhibition at 2 µM (human GPR84 receptor) | inhibition at 10 µM (human GPR84 receptor) | other results
O=C(c1cn(CC2OCC3(CC3)CO2)nn1)N(c1cc(C#CC2CC2)ccc1F)C1CC1 [Compound I-90] | ≤ 300 nM | – | > 75% | –
O=C(c1cn(CC2OCC3(CC3)CO2)nn1)N(c1ccc(C#CC2CC2)cc1F)C1CC1 [Compound I-91] | ≤ 300 nM | > 75% | – | –
O=C(c1cn(CC2OCC3(CC3)CO2)nn1)N(c1cc(C#CC2CC2)ccc1Br)C1CC1 [Compound I-92] | 300 to 1000 nM | > 75% | – | –
O=C(c1cn(CC2OCC3(CC3)CO2)nn1)N(c1ccc(C#CC2CC2)cc1Br)C1CC1 [Compound I-93] | ≤ 300 nM | > 75% | – | –
